≈ marks a conversion by molar mass, not a printed value. Where “and” joins values, the source holds several entries; their conditions need not be identical. Identical values can stand only once.
Columns and labels:
[1] = system: Aspergillus flavus (NCIM 524); assay: minimum inhibitory concentration by dilution method; format: cell-based; settings: Aspergillus flavus, NCIM524
Procedure: (§1) The in vitro antimicrobial screening effects of the compounds (3 and 5a–j) were individually tested against a panel of bacteria and fungi including Staphylococcus aureus (NCIM 5021), Bacillus subtilis (NCIM 2999), Pseudomonas aeruginosa (NCIM 5029), Escherichia coli (NCIM 2574), Candida. albicans (NCIM 3471), and Aspergillus flavus (NCIM 524). Microbial strains were cultured overnight at 37°C in nutrient and potato dextrose agar medium. All the pure microbial strains were obtained from National Chemical Laboratory (NCL), Pune, India.
(§2) The minimum inhibitory concentration of the synthesized compounds was determined by dilution method. The compounds were dissolved and then diluted using DMSO; two-fold serial concentrations of the compounds were employed to determine the MIC. In this method, the test concentrations of chemically synthesized compounds were made from 5 to 125 μg/mL.

[2] = system: Bacillus subtilis (NCIM 2999); assay: as above; format: cell-based; settings: Bacillus subtilis, NCIM2999
Procedure: as §1, §2

[3] = system: Escherichia coli (NCIM 2574); assay: as above; format: cell-based; settings: Escherichia coli, NCIM2574
Procedure: as §1, §2

[4] = system: Staphylococcus aureus (NCIM 5021); assay: as above; format: cell-based
Procedure: as §1, §2

[5] = DPPH free radical scavenging activity; settings: DPPH 0.1 mM, absorbance at 517 nm; triplicate, mean ± SD
Procedure: The capacity to scavenge the stable free radical 2,2-diphenyl-1-picrylhydrazyl (DPPH) was monitored according to the Blois method. The test samples (10–100 μL) were mixed with 1 mL of DPPH (0.1 mM) solution and filled up with methanol to a final volume of 4 mL. Absorbance of the resulting solution was measured at 517 nm in a visible spectrophotometer (Model 166, Systronics, India). The free radical scavenging rate of the reaction solution was calculated as a percentage (%) of DPPH decolouration using the equation (1) I(%)=(Ablank−Asample/Ablank)×100, where A blank is the absorbance of the control reaction mixture excluding the test compounds, and A sample is the absorbance of the test compounds. Radical scavenging potential was expressed as IC50 value, which represents the sample concentration at which 50% of the DPPH radicals were scavenged. Tests were carried out in triplicate and the results were expressed as mean values ± standard deviations.
DPPH radical scavenging activity evaluation is a standard assay in antioxidant activity studies and offers a rapid technique for screening the radical scavenging activity of specific compounds [24]. The free radical scavenging activity of newly synthesized compounds was tested by their ability to bleach the stable radical DPPH. The activity was monitored by following the absorption at 517 nm in a visible spectrophotometer. In the presence of any free radical scavenger, this odd electron pairs up and causes the diminishing of absorption band which is proportional to the number of electrons taken up. The activity was studied at different concentrations for each compound. […] Resulting from a color change from purple to yellow the absorbance decreased when the antioxidant molecule can quench DPPH free radical through donation of hydrogen atom or by electron donating to form a stable DPPH molecule.

[6] = target: T1, bovine serum albumin (BSA) (Bos taurus, UniProt P02769); assay: fluorescence quenching of BSA, binding parameters; settings: for n (number of binding sites) / K sv (Stern-Volmer quenching constant) / K q (quenching rate constant) / shift of BSA fluorescence emission maximum wavelength: 298 K; for K sv (Stern-Volmer quenching constant): BSA 1.00 × 10^−5 mol L^−1, Tris-HCl pH 7.4; for K q (quenching rate constant): τ0 = 10^−8 s; for shift of BSA fluorescence emission maximum wavelength: excitation 280 nm, emission around 340 nm
T1 construct: Bovine serum albumin (BSA), one of the major components in plasma protein; purchased Sigma Aldrich Bangalore
Procedure: All the chemicals and solvents were of AR grade. Solvents were used as supplied by commercial sources without any further purification. BSA (essentially fatty-acid-free) was purchased from Sigma Aldrich Bangalore and stored in refrigerator at 4.0°C. BSA solution was prepared in the Tris-HCl buffer solution (0.05 mol L^−1 Tris, 0.15 mol L^−1 NaCl, pH 7.4) and it was kept in the dark at 298 K. The compounds were prepared as stock solutions using DMF. All other reagents were of analytical reagent grade, and double-distilled water was used during the experiment.
For each of the […] active compounds (5a, 5c, 5g, 5h, 5i, and 5j), the binding parameters with BSA molecules were measured by fluorescence spectroscopy. A solution (2.5 mL) containing 1.00 × 10^−5 mol L^−1 BSA was titrated by successive additions of 1.00 × 10^−3 mol L^−1 NABP stock solution and the concentration of NABP varied from 0 to 3.0 × 10^−5 mol L^−1 (a–g). Titrations were done manually by using microinjector. Fluorescence intensity was measured (excitation at 280 nm and emission at 340 nm). All experiments were performed at 298 K.
In order to investigate the quenching mechanism, the fluorescence quenching data K 0 and n were analyzed by the Stern-Volmer equation (2): (2) F0/F=1+Ksv[Q]=1+Kqτ0[Q], where F 0 and F denote the steady-state fluorescence intensities in the absence and in the presence of quencher, respectively, K 0 is binding constant of BSA, [Q] is the equilibrium concentration of the quencher, and n is the number of binding sites. The average lifetime, τ 0 of the molecule without quencher is 10^−8 s.
When the quenching mechanism is static, the binding parameters between BSA and compounds can be determined using (3): (3) log(F0−F)/F=log Ka+n log[Q].
The plot of log[(F 0 − F)/F] versus log[NABP], binding constant K a, and binding sites n were calculated from the intercept and slope. […] The value of n approximately equaled 1.

[7] = target: T1, bovine serum albumin (BSA); assay: energy transfer from BSA to compound (Forster theory); format: binding; settings: for J (spectral overlap): BSA emission / compound UV absorption; for R 0 (critical energy transfer distance): K^2 = 2/3, N = 1.311, Φ = 0.118
From the text: The binding distance (r) between a protein residue (donor) and a bound drug molecule (acceptor) can be calculated from Foster's nonradiative energy transfer theory. The efficiency of energy transfer E and the distance between the acceptor and donor r can be defined as the following equation [36]: (4) E=1−(F/F0)=R06/R06+r^6, where r is the distance between the acceptor and donor; F and F 0 are the fluorescence intensities of BSA in the presence of and in the absence of quencher, respectively; R 0 is the critical energy transfer distance when the transfer efficiency is 50%. It is given by the following equation: (5) R06=8.8×10^−25K^2N^−4ΦJ.
K ^2 is a factor describing the spatial orientation factor related to the geometry of the donor and acceptor of dipoles; N is the refractive index of medium; Φ is the fluorescence quantum yield of the donor in the absence of acceptor; J is the effect of spectra overlap between the fluorescence emission spectrum of the donor and the UV-vis absorption spectrum of the acceptor, and J can be calculated by (6): (6) J=f(λ)ε(λ)λ^4Δλ/ΣF(λ)Δλ, where F(λ) is the corrected fluorescence intensity of the donor in the wavelength range from λ to λ + Δλ and ε(λ) is the molar absorption coefficient of the acceptor at wavelength λ. In the present case, K ^2 = 2/3, N = 1.311, and Φ = 0.118 for BSA molecules, respectively.

[8] = Staphylococcus aureus, NCIM5021

T1 sequence (P02769 25-607): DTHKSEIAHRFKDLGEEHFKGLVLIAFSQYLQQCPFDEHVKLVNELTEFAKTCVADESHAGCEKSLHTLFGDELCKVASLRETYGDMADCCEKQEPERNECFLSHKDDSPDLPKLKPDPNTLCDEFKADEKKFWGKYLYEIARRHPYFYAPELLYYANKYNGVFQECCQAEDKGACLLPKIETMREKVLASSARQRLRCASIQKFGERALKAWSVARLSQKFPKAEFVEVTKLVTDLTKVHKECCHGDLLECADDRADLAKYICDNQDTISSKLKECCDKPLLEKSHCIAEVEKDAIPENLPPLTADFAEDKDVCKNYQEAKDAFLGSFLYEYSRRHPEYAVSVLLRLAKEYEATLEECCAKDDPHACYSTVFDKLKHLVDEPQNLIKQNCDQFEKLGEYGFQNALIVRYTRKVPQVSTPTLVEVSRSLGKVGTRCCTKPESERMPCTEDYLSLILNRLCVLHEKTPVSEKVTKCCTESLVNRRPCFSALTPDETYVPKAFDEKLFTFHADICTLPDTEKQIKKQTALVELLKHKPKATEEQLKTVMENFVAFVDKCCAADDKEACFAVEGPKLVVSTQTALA

SMILES: CC(=O)N(C(=O)c1cc(F)c(F)c(F)c1)c1ccc(N=Cc2cc3ccccc3o2)cc1 [Compound 5g, N-acetyl-N-(4-(benzofuran-2-ylmethyleneamino)phenyl)-3,4,5-trifluorobenzamide]
- MIC [1]: 15 µg/mL (≈ 34.4 µM)
- MIC [2]: 10 µg/mL (≈ 22.9 µM)
- MIC [3]: 12 µg/mL (≈ 27.5 µM)
- MIC ([4]; S. aureus, dilution method, average of three replicates): 9.8 µg/mL (≈ 22.5 µM)
- MIC [4, 8]: 9.8 µg/mL (≈ 22.5 µM)
- IC50 DPPH [5]: > 100 µg/mL and >125 µg/mL
- Kd [6]: 6.37 µM
- n (number of binding sites) [6]: 1.281
- K sv (Stern-Volmer quenching constant) [6]: 79800 L/mol
- K q (quenching rate constant) [6]: 7.98e+12 M⁻¹ s⁻¹
- shift of BSA fluorescence emission maximum wavelength [6]: slight blue shift
- E (efficiency of energy transfer) [7]: 0.31
- r (binding distance between donor BSA and acceptor) [7]: 3.07 nm
- J (spectral overlap) [7]: 2.37 × 10^−14 cm^3 L mol^−1
- R 0 (critical energy transfer distance) [7]: 2.86 nm
- melting point: 190 °C

SMILES: COc1ccc(C(=O)N(C(C)=O)c2ccc(N=Cc3cc4ccccc4o3)cc2)cc1 [Compound 5i, N-acetyl-N-(4-(benzofuran-2-ylmethyleneamino)phenyl)-4-methoxybenzamide]
- MIC [1]: 30 µg/mL (≈ 72.7 µM)
- MIC [2]: 50 µg/mL (≈ 121 µM)
- MIC [3]: 30 µg/mL (≈ 72.7 µM)
- MIC [4, 8]: 40 µg/mL (≈ 97 µM)
- IC50 DPPH [5]: 18.5 ± 0.17 µg/mL (≈ 44.9 µM)
- Kd [6]: 1.57 µM
- n (number of binding sites) [6]: 1.208
- K sv (Stern-Volmer quenching constant) [6]: 74000 L/mol
- K q (quenching rate constant) [6]: 7.4e+12 M⁻¹ s⁻¹
- shift of BSA fluorescence emission maximum wavelength [6]: slight blue shift
- E (efficiency of energy transfer) [7]: 0.33
- r (binding distance between donor BSA and acceptor) [7]: 3.17 nm
- J (spectral overlap) [7]: 2.79 × 10^−14 cm^3 L mol^−1
- R 0 (critical energy transfer distance) [7]: 2.83 nm
- melting point: 205 °C

SMILES: CC(=O)N(C(=O)c1ccccc1)c1ccc(N=Cc2cc3ccccc3o2)cc1 [Compound 5c, N-acetyl-N -(4-((benzofuran-2-ylmethylene)amino)phenyl)benzamide]
- MIC [1]: 40 µg/mL (≈ 105 µM)
- MIC [2]: 35 µg/mL (≈ 91.5 µM)
- MIC [3]: 50 µg/mL (≈ 131 µM)
- MIC [4, 8]: 35 µg/mL (≈ 91.5 µM)
- IC50 DPPH [5]: 61.7 ± 0.55 µg/mL (≈ 161 µM)
- Kd [6]: 38.6 µM
- n (number of binding sites) [6]: 0.855
- K sv (Stern-Volmer quenching constant) [6]: 19300 L/mol
- K q (quenching rate constant) [6]: 1.93e+12 M⁻¹ s⁻¹
- shift of BSA fluorescence emission maximum wavelength [6]: red shift
- E (efficiency of energy transfer) [7]: 0.14
- r (binding distance between donor BSA and acceptor) [7]: 4.11 nm
- J (spectral overlap) [7]: 3.05 × 10^−14 cm^3 L mol^−1
- R 0 (critical energy transfer distance) [7]: 3.04 nm
- melting point: 192 °C

SMILES: CC(=O)N(C(=O)c1cc(F)ccc1F)c1ccc(N=Cc2cc3ccccc3o2)cc1 [Compound 5a, N-acetyl-N-(4-((benzofuran-2-ylmethylene)amino)phenyl)-2,5-difluorobenzamide]
- MIC [1]: 15 µg/mL (≈ 35.9 µM)
- MIC [2]: 12 µg/mL (≈ 28.7 µM)
- MIC [3]: 25 µg/mL (≈ 59.8 µM)
- MIC [4, 8]: 12 µg/mL (≈ 28.7 µM)
- IC50 DPPH [5]: 97.5 ± 0.37 µg/mL (≈ 233 µM)
- Kd [6]: 1.9 µM
- n (number of binding sites) [6]: 1.180
- K sv (Stern-Volmer quenching constant) [6]: 99600 L/mol
- K q (quenching rate constant) [6]: 9.96e+12 M⁻¹ s⁻¹
- shift of BSA fluorescence emission maximum wavelength [6]: slight blue shift
- E (efficiency of energy transfer) [7]: 0.11
- r (binding distance between donor BSA and acceptor) [7]: 3.77 nm
- J (spectral overlap) [7]: 1.05 × 10^−14 cm^3 L mol^−1
- R 0 (critical energy transfer distance) [7]: 2.51 nm
- melting point: 197 °C

SMILES: CC(=O)N(C(=O)c1ccc(O)cc1)c1ccc(N=Cc2cc3ccccc3o2)cc1 [Compound 5j, N-acetyl-N-(4-((benzofuran-2-ylmethylene)amino)phenyl)-4-hydroxybenzamide]
- MIC [1]: 40 µg/mL (≈ 100 µM)
- MIC [2]: 35 µg/mL (≈ 87.8 µM)
- MIC [3]: 50 µg/mL (≈ 125 µM)
- MIC [4, 8]: 35 µg/mL (≈ 87.8 µM)
- IC50 DPPH [5]: 15.3 ± 0.11 µg/mL (≈ 38.4 µM)
- Kd [6]: 91.7 µM
- n (number of binding sites) [6]: 0.961
- K sv (Stern-Volmer quenching constant) [6]: 23900 L/mol
- K q (quenching rate constant) [6]: 2.39e+12 M⁻¹ s⁻¹
- shift of BSA fluorescence emission maximum wavelength [6]: red shift
- E (efficiency of energy transfer) [7]: 0.14
- r (binding distance between donor BSA and acceptor) [7]: 4.09 nm
- J (spectral overlap) [7]: 4.26 × 10^−14 cm^3 L mol^−1
- R 0 (critical energy transfer distance) [7]: 3.02 nm
- melting point: 213 °C

SMILES: CC(=O)N(C(=O)c1cc(F)cc(F)c1)c1ccc(N=Cc2cc3ccccc3o2)cc1 [Compound 5h, N-acetyl-N-(4-((benzofuran-2-ylmethylene)amino)phenyl)-3,5-difluorobenzamide]
- MIC [1]: 15 µg/mL (≈ 35.9 µM)
- MIC [2]: 12.4 µg/mL (≈ 29.6 µM)
- MIC [3]: 25 µg/mL (≈ 59.8 µM)
- MIC [4, 8]: 12.4 µg/mL (≈ 29.6 µM)
- IC50 DPPH [5]: > 100 µg/mL and 100 ± 0.19 µg/mL
- Kd [6]: 12.7 µM
- n (number of binding sites) [6]: 1.136
- K sv (Stern-Volmer quenching constant) [6]: 21300 L/mol
- K q (quenching rate constant) [6]: 2.13e+12 M⁻¹ s⁻¹
- shift of BSA fluorescence emission maximum wavelength [6]: red shift
- E (efficiency of energy transfer) [7]: 0.15
- r (binding distance between donor BSA and acceptor) [7]: 2.93 nm
- J (spectral overlap) [7]: 4.91 × 10^−14 cm^3 L mol^−1
- R 0 (critical energy transfer distance) [7]: 2.16 nm
- melting point: 187 °C
